Test: xn = mol fraction of the nth substance listed
Conditions: Fluid (supercritical or subcritical phases), Constant-volume piezometry

CCO [ethanol] + O
Conditions	mass density [kg/m3]
598.15 K, 15540 kPa, x1 = 0.2	308.36
598.15 K, 15600 kPa, x1 = 0.8	243.3
598.15 K, 15640 kPa, x1 = 0.2	325.01
598.15 K, 16230 kPa, x1 = 0.8	260.09
598.15 K, 16810 kPa, x1 = 0.2	420.24
598.15 K, 17080 kPa, x1 = 0.8	283.38
598.15 K, 18140 kPa, x1 = 0.8	306.39
598.15 K, 18350 kPa, x1 = 0.8	311.71
598.15 K, 19160 kPa, x1 = 0.5	326.69
598.15 K, 21410 kPa, x1 = 0.8	366.53
598.15 K, 21610 kPa, x1 = 0.5	384.81
598.15 K, 21850 kPa, x1 = 0.5	418.8
598.15 K, 22460 kPa, x1 = 0.8	381.79
598.15 K, 24130 kPa, x1 = 0.5	420.47
598.15 K, 24210 kPa, x1 = 0.5	423.68
598.15 K, 24610 kPa, x1 = 0.8	404.76
598.15 K, 27590 kPa, x1 = 0.2	547.13
598.15 K, 28350 kPa, x1 = 0.8	438.59
598.15 K, 28670 kPa, x1 = 0.5	462.7
598.15 K, 38940 kPa, x1 = 0.5	520.65
598.15 K, 48240 kPa, x1 = 0.2	617.36
598.15 K, 48500 kPa, x1 = 0.5	554.28
603.15 K, 10470 kPa, x1 = 0.2	67.54
603.15 K, 12120 kPa, x1 = 0.5	117.18
603.15 K, 14860 kPa, x1 = 0.5	170.89
603.15 K, 16860 kPa, x1 = 0.2	350.86
603.15 K, 16940 kPa, x1 = 0.5	234.07
603.15 K, 18730 kPa, x1 = 0.5	293.15
613.15 K, 23290 kPa, x1 = 0.2	452.8
623.15 K, 6210 kPa, x1 = 0.8	53.01
623.15 K, 7610 kPa, x1 = 0.5	55.79
623.15 K, 9230 kPa, x1 = 0.5	69.05
623.15 K, 10590 kPa, x1 = 0.5	84.15
623.15 K, 11070 kPa, x1 = 0.8	114.64
623.15 K, 13180 kPa, x1 = 0.5	117.07
623.15 K, 13400 kPa, x1 = 0.2	89.94
623.15 K, 15510 kPa, x1 = 0.8	187.93
623.15 K, 16770 kPa, x1 = 0.2	137.9
623.15 K, 18300 kPa, x1 = 0.8	242.99
623.15 K, 19450 kPa, x1 = 0.2	221.42
623.15 K, 20470 kPa, x1 = 0.8	283.01
623.15 K, 20590 kPa, x1 = 0.2	286.35
623.15 K, 21000 kPa, x1 = 0.2	307.94
623.15 K, 21380 kPa, x1 = 0.2	324.56
623.15 K, 21860 kPa, x1 = 0.8	305.99
623.15 K, 21920 kPa, x1 = 0.2	350.47
623.15 K, 22240 kPa, x1 = 0.8	311.3
623.15 K, 24920 kPa, x1 = 0.2	420.24
623.15 K, 26360 kPa, x1 = 0.8	366.04
623.15 K, 27820 kPa, x1 = 0.8	381.27
623.15 K, 27940 kPa, x1 = 0.5	384.27
623.15 K, 30710 kPa, x1 = 0.8	404.2
623.15 K, 31220 kPa, x1 = 0.5	418.2
623.15 K, 31480 kPa, x1 = 0.5	419.87
623.15 K, 31720 kPa, x1 = 0.5	423.08
623.15 K, 36430 kPa, x1 = 0.8	444.29
623.15 K, 37340 kPa, x1 = 0.5	462.02
623.15 K, 41330 kPa, x1 = 0.2	546.22
623.15 K, 50360 kPa, x1 = 0.5	519.83
628.15 K, 19790 kPa, x1 = 0.8	259.69
628.15 K, 36970 kPa, x1 = 0.8	437.84
633.15 K, 11600 kPa, x1 = 0.2	67.45
633.15 K, 13740 kPa, x1 = 0.5	117.01
633.15 K, 17410 kPa, x1 = 0.5	170.64
633.15 K, 23850 kPa, x1 = 0.5	292.69
633.15 K, 26000 kPa, x1 = 0.5	326.07
638.15 K, 21420 kPa, x1 = 0.5	233.65
643.15 K, 35160 kPa, x1 = 0.2	451.97
648.15 K, 6600 kPa, x1 = 0.8	52.95
648.15 K, 8080 kPa, x1 = 0.5	55.72
648.15 K, 9890 kPa, x1 = 0.5	68.96
648.15 K, 11430 kPa, x1 = 0.5	84.05
648.15 K, 12050 kPa, x1 = 0.8	114.5
648.15 K, 14470 kPa, x1 = 0.5	116.92
648.15 K, 14680 kPa, x1 = 0.2	89.83
648.15 K, 17440 kPa, x1 = 0.8	187.69
648.15 K, 19110 kPa, x1 = 0.2	137.73
648.15 K, 23400 kPa, x1 = 0.2	221.13
648.15 K, 25670 kPa, x1 = 0.8	305.59
648.15 K, 25860 kPa, x1 = 0.2	285.96
648.15 K, 26120 kPa, x1 = 0.8	310.89
648.15 K, 26740 kPa, x1 = 0.2	307.52
648.15 K, 28730 kPa, x1 = 0.2	349.97
648.15 K, 31420 kPa, x1 = 0.8	365.54
648.15 K, 33230 kPa, x1 = 0.8	380.75
648.15 K, 33660 kPa, x1 = 0.2	420.24
648.15 K, 34330 kPa, x1 = 0.5	383.73
648.15 K, 36760 kPa, x1 = 0.8	403.64
648.15 K, 39020 kPa, x1 = 0.5	419.27
653.15 K, 19550 kPa, x1 = 0.2	137.7
653.15 K, 21530 kPa, x1 = 0.8	242.62
653.15 K, 22750 kPa, x1 = 0.8	259.36
653.15 K, 24460 kPa, x1 = 0.8	282.58
653.15 K, 26990 kPa, x1 = 0.8	310.81
653.15 K, 28660 kPa, x1 = 0.2	324.03
653.15 K, 34300 kPa, x1 = 0.8	380.65
653.15 K, 35620 kPa, x1 = 0.5	383.63
653.15 K, 40110 kPa, x1 = 0.5	417.48
653.15 K, 40890 kPa, x1 = 0.5	422.34
653.15 K, 44100 kPa, x1 = 0.8	437.21
653.15 K, 48080 kPa, x1 = 0.5	461.19
673.15 K, 6990 kPa, x1 = 0.8	52.89
673.15 K, 8570 kPa, x1 = 0.5	55.65
673.15 K, 10540 kPa, x1 = 0.5	68.88
673.15 K, 12250 kPa, x1 = 0.5	83.95
673.15 K, 12980 kPa, x1 = 0.2	67.32
673.15 K, 13010 kPa, x1 = 0.8	114.36
673.15 K, 15740 kPa, x1 = 0.5	116.78
673.15 K, 15940 kPa, x1 = 0.2	89.72
673.15 K, 19310 kPa, x1 = 0.8	187.46
673.15 K, 20680 kPa, x1 = 0.5	170.3
673.15 K, 21310 kPa, x1 = 0.2	137.56
673.15 K, 23620 kPa, x1 = 0.8	242.38
673.15 K, 25130 kPa, x1 = 0.8	259.1
673.15 K, 25740 kPa, x1 = 0.5	233.23
673.15 K, 27230 kPa, x1 = 0.8	282.28
673.15 K, 27430 kPa, x1 = 0.2	220.84
673.15 K, 29500 kPa, x1 = 0.8	305.19
673.15 K, 30040 kPa, x1 = 0.8	310.49
673.15 K, 30620 kPa, x1 = 0.5	292.07
673.15 K, 31230 kPa, x1 = 0.2	285.57
673.15 K, 32510 kPa, x1 = 0.2	307.09
673.15 K, 33730 kPa, x1 = 0.2	323.66
673.15 K, 34050 kPa, x1 = 0.5	325.37
673.15 K, 35510 kPa, x1 = 0.2	349.48
673.15 K, 36420 kPa, x1 = 0.8	365.05
673.15 K, 38700 kPa, x1 = 0.8	380.23
673.15 K, 40850 kPa, x1 = 0.5	383.2
673.15 K, 42660 kPa, x1 = 0.2	420.24
673.15 K, 42950 kPa, x1 = 0.8	403.08
673.15 K, 46620 kPa, x1 = 0.5	418.66
673.15 K, 47140 kPa, x1 = 0.2	451.15
